Converted amounts (≈) assume the structure as drawn. Like-named read-outs stand apart in the source and are kept apart here.
What was measured:
[1] = tested on: Plasmodium falciparum; assay: Plasmodium falciparum Assay; type: cell-based; conditions: 3-H-hypoxanthine incorporation, 48 hours, read-out: Plasmodium IC50 ± SD
Summary of the method: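 Parasitized erythrocytes (~1% parasitemia, 5×10^8/ml) cultured 48 h in RPMI with test compound, with 3H-hypoxanthine added for the last 24 h. Growth inhibition read as 3H-hypoxanthine incorporation into parasite DNA by liquid scintillation; uninfected and untreated infected cultures run in parallel.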

[2] = tested on: Helicobacter pylori; assay: Helicobacter species Assay (agar plate, MIC); type: cell-based; conditions: for MIC: 20 strains of H. pylori, agar plate, 72 hours; for No. strains inhibited/No. strains tested: at the MIC of the same line
Protocol: (§1) 20 strains of Helicobacter pylori were used in an agar plate assay. The compounds were incorporated in the agar plates at different concentrations as described in the examples and were then inoculated with different strains of Helicobacter pylori followed by incubation in a microaerophilic atmosphere at 37° C. for 72 hours. The number of colony-forming units (CFU) were counted after the incubation period. The MIC values were determined as the minimal concentration required to inhibit growth of the bacteria.
(§2) Stock solutions were made at a concentration of 1 mg/ml by dissolving 1 mg of each compound in 100 μl DMSO (dimethylsulfoxide) followed by addition of 900 μl of heat-inactivated fetal claf serum (HFCS). These stock solutions were diluted with HFCS to make solutions having the following concentrations: 320 μg/ml, 160 μg/ml, 80 μg/ml, 40 μg/ml and 20 μg/ml. Dilution rows were made with 3 ml aliquots in vials containing the compounds in the following final test concentrations: 16 μg/ml, 8 μg/ml, 4 μg/ml, 2 μg/ml and 1 μg/ml. As control was used DMSO-HFCS containing an amount of DMSO equal to the amount of test compound in the solution with 320 μg/ml compound.
as §1, with “Bacteria: 20” for “20”, “concentrations” for “concentrations as described in the examples”, “and then they” for “and”, “were” for “were then”, “incubation at” for “incubation in a”, “C. in” for “C. for”
as §2, with “concentrations: 2560 μg/ml, 1280 μg/ml, 640 μg/ml,” for “concentrations:”, “160 µg/ml and” for “160 μg/ml,”, “80” for “80 μg/ml, 40 μg/ml and 20”, “concentrations: 128 μg/ml, 64 μg/ml, 32 μg/ml, 12” for “concentrations: 16”, “8” for “8 μg/ml, 4 μg/ml, 2”, “and 4” for “and 1”
Bacteria: 20 strains of Helicobacter pylori were used in an agar plate assay. The same method as described above under Experiment A was employed and MIC values were determined.

[3] = Helicobacter pylori, read-out: MIC

In the case of C=CC(C)(C)c1cc(/C=C/C(=O)c2ccc(O)cc2)c(OC)cc1O [Licochalcone A], the IC50 [1] is reported as 5.6 µM, the “growth of the strains of H. pylori (FIGS. 1 and 2)” value (from here on “growth of the strains of H. pylori”) [2] is reported as “inhibited the growth of all the strains” and the “strains that gave a MIC value equal to or less than 16 μg/ml” value ([2]; 20 strains) is reported as 20 out of 20. The MIC [2] was 16 µg/mL (≈ 47.3 µM) and the “No. strains inhibited/No. strains tested” value [2] was 20/20.
In the case of COc1cc(/C=C/C(=O)c2ccc(C3CCCCC3)cc2)cc(OC)c1 [PH104, 3,5-dimethoxy-4′-cyclohexylchalcone], the IC50 ([1]; Plasmodium falciparum) is reported as 15 µM, the “growth of the strains of H. pylori” value [2] is reported as “inhibited the growth of all the strains” and the MIC [2, 3] is reported as 64 µg/mL (≈ 183 µM). For the same molecule, the “No. strains inhibited/No. strains tested” value [2] was 15/20.
COc1cc(/C=C/C(=O)c2ccc([N+](=O)[O-])cc2)cc(OC)c1 [PH105, 4′-nitro-3,5-dimethoxychalcone] was tested, and the MIC [2, 3] was 16 µg/mL (≈ 51.1 µM), the “strains of Helicobacter pylori inhibited” value ([2]; at a concentration of 16 μg/ml, 20 strains) was 12 out of 20 and the “No. strains inhibited/No. strains tested” value [2] was 12/20.
For COc1cc(/C=C/C(=O)c2ccccc2F)cc(OC)c1 [PH135, 2′-fluoro-3,5-dimethoxychalcone], the IC50 ([1]; Plasmodium falciparum) was 8.7 µM, the “growth of the strains of H. pylori” value [2] was “inhibited the growth of all the strains” and the MIC [2, 3] was 32 µg/mL (≈ 112 µM). The “No. strains inhibited/No. strains tested” value [2] was 20/20.
COc1cc(/C=C/C(=O)c2cccc(F)c2)cc(OC)c1 [PH136, 3′-fluoro-3,5-dimethoxychalcone] was tested, and the IC50 ([1]; Plasmodium falciparum) was 8.1 µM, the “growth of the strains of H. pylori” value [2] was “inhibited the growth of all the strains” and the MIC [2, 3] was 32 µg/mL (≈ 112 µM). The “No. strains inhibited/No. strains tested” value [2] was 15/20.

— patent publication US20030065039A1, “Biologically active 1,3-bis-aromatic-prop-2-en-1-ones, 1,3-bis-aromatic-propan-1-ones, and 1,3-bis-aromatic-prop-2-yn-1-ones” (Statens Serum Institute, priority 1997, published 2003)
